Measurements reported in US4740233A, “Substituted 1,2,4-triazolo[1,5-a]-pyrimidine-2-sulfonamides and compositions and methods of controlling undesired vegetation and suppressing the nitrification of ammonium nitrogen in soil” (The Dow Chemical Company, priority 1986, dated 1988).

Key:
[1] = system: cotton; experiment: Preemergent control of plant species; assay type: in vivo, Gossypium spp.; conditions: Gossypium hirsutum, pre-emergence, 336 h; 0.25 lb/acre; read-out: percent preemergent control
How it was run: (§1)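 Preemergent application of aqueous emulsions at rates given in the table, uniformly over seeded greenhouse soil. Untreated (water) beds as comparison; rating after 2 weeks as reduction in growth.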

[2] = system: yellow foxtail; experiment: Preemergent control of plant species; assay type: in vivo, Setaria lutescens; conditions: Setaria, pre-emergence, 336 h; 0.25 lb/acre; read-out: percent preemergent control
How it was run: as §1

[3] = system: sugar beet; experiment: Postemergent control of plant species; assay type: in vivo, Beta saccharifera; conditions: Beta vulgaris, post-emergence, 336 h, read-out: percent postemergent control
How it was run: (§2)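 Each compound is dissolved in acetone, mixed with an equal volume of 0.1% surfactant water, and sprayed on plants grown to 2-4 leaves in nutrient soil. Treated and untreated beds sit under identical greenhouse temperature and light for roughly two weeks before growth reduction is rated.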

[4] = system: wheat; experiment: Preemergent control of plant species; assay type: in vivo, Triticum aestivum; conditions: Triticum aestivum, pre-emergence, 336 h; 0.25 lb/acre; read-out: percent preemergent control
How it was run: as §1

[5] = system: barnyardgrass; experiment: Postemergent control of plant species; assay type: in vivo, Echinochloa crusgalli; conditions: Echinochloa crus-galli, post-emergence, 336 h, read-out: percent postemergent control
How it was run: as §2

[6] = system: johnson grass; experiment: Preemergent control of plant species; assay type: in vivo, Sorghum halepense; conditions: Sorghum halepense, pre-emergence, 336 h; 0.25 lb/acre; read-out: percent preemergent control
How it was run: as §1

[7] = system: annual morning glory; experiment: Preemergent control of plant species; assay type: in vivo, Ipomoea spp.; conditions: Ipomoea, pre-emergence, 336 h; 0.25 lb/acre; read-out: percent preemergent control
How it was run: as §1

[8] = system: rape; experiment: Preemergent control of plant species; assay type: in vivo, Brassica napus; conditions: Brassica napus, pre-emergence, 336 h; 0.25 lb/acre; read-out: percent preemergent control
How it was run: as §1

[9] = system: wild oats; experiment: Postemergent control of plant species; assay type: in vivo, Avena fatua; conditions: Avena fatua, post-emergence, 336 h, read-out: percent postemergent control
How it was run: as §2

[10] = system: yellow nutsedge; experiment: Postemergent control of plant species; assay type: in vivo, Cyperus esculentus; conditions: Cyperus, post-emergence, 336 h, read-out: percent postemergent control
How it was run: as §2

[11] = system: rice; experiment: Postemergent control of plant species; assay type: in vivo, Oryza sativa; conditions: Oryza sativa, post-emergence, 336 h, read-out: percent postemergent control
How it was run: as §2

[12] = system: pigweed; experiment: Postemergent control of plant species; assay type: in vivo, Amaranthus spp.; conditions: Amaranthus retroflexus, post-emergence, 336 h, read-out: percent postemergent control
How it was run: as §2

[13] = system: wheat; experiment: Postemergent control of plant species; assay type: in vivo, Triticum aestivum; conditions: Triticum aestivum, post-emergence, 336 h, read-out: percent postemergent control
How it was run: as §2

[14] = system: crabgrass; experiment: Preemergent control of plant species; assay type: in vivo, Digitaria spp.; conditions: Digitaria sanguinalis, pre-emergence, 336 h; 0.25 lb/acre; read-out: percent preemergent control
How it was run: as §1

[15] = system: wild oats; experiment: Preemergent control of plant species; assay type: in vivo; conditions: Avena fatua, pre-emergence, 336 h; 0.25 lb/acre; read-out: percent preemergent control
How it was run: as §1

[16] = system: annual morning glory; experiment: Postemergent control of plant species; assay type: in vivo, Ipomoea spp.; conditions: Ipomoea, post-emergence, 336 h, read-out: percent postemergent control
How it was run: as §2

[17] = system: cocklebur; experiment: Postemergent control of plant species; assay type: in vivo, Xanthium spp.; conditions: Xanthium strumarium, post-emergence, 336 h, read-out: percent postemergent control
How it was run: as §2

[18] = system: nitrification of ammonium nitrogen; experiment: Suppression of nitrification of ammonium nitrogen in soil; conditions: 27° C.
How it was run: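 Soil (20 g) moistened to its 1/3 bar tension value, mixed with test chemical and incubated sealed for two weeks at 27° C. Nitrate extracted with ammonium sulfate solution and measured by nitrate-specific ion electrode; value given as % NH4-N remaining.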

[19] = system: pigweed; experiment: Preemergent control of plant species; assay type: in vivo, Amaranthus spp.; conditions: Amaranthus retroflexus, pre-emergence, 336 h; 0.25 lb/acre; read-out: percent preemergent control
How it was run: as §1

[20] = system: rape; experiment: Postemergent control of plant species; assay type: in vivo, Brassica napus; conditions: Brassica napus, post-emergence, 336 h, read-out: percent postemergent control
How it was run: as §2

[21] = system: soybean; experiment: Postemergent control of plant species; assay type: in vivo, Glycine max.; conditions: Glycine max, post-emergence, 336 h, read-out: percent postemergent control
How it was run: as §2

[22] = system: crabgrass; experiment: Postemergent control of plant species; assay type: in vivo, Digitaria spp.; conditions: Digitaria sanguinalis, post-emergence, 336 h, read-out: percent postemergent control
How it was run: as §2

[23] = system: jimsonweed; experiment: Preemergent control of plant species; assay type: in vivo, Datura stramonium; conditions: Datura stramonium, pre-emergence, 336 h; 0.25 lb/acre; read-out: percent preemergent control
How it was run: as §1

[24] = system: soybean; experiment: Preemergent control of plant species; assay type: in vivo, Glycine max.; conditions: Glycine max, pre-emergence, 336 h; 0.25 lb/acre; read-out: percent preemergent control
How it was run: as §1

For `Cc1cc(C)n2nc(S(=O)(=O)Nc3ccccc3F)nc2n1` [Compound 8], which plant injury at 280.212 g/ha [1] is on record?
Its plant injury at 280.212 g/ha is 90%.

What about the pest or weed control at 280.212 g/ha [2] of the same compound?
Its pest or weed control at 280.212 g/ha is 60%.

What about the plant injury at 500 ppm [3] of the same compound?
Its plant injury at 500 ppm is 95%.

And the plant injury at 280.212 g/ha [4]?
Its plant injury at 280.212 g/ha is 0%.

What about the pest or weed control at 500 ppm [5] of the same compound?
The pest or weed control at 500 ppm was 70%.

What about the pest or weed control at 280.212 g/ha [6] of the same compound?
The pest or weed control at 280.212 g/ha was 80%.

And the pest or weed control at 280.212 g/ha [7]?
The pest or weed control at 280.212 g/ha was 25%.

And the plant injury at 280.212 g/ha [8]?
The plant injury at 280.212 g/ha was 100%.

What about the pest or weed control at 500 ppm [9] of the same compound?
The pest or weed control at 500 ppm was 0%.

What about the pest or weed control at 500 ppm [10] of the same compound?
The pest or weed control at 500 ppm was 60%.

What about the plant injury at 500 ppm [11] of the same compound?
The plant injury at 500 ppm was 40%.

And the pest or weed control at 500 ppm [12]?
Its pest or weed control at 500 ppm is 50%.

What about the plant injury at 500 ppm [13] of the same compound?
Its plant injury at 500 ppm is 10%.

And the pest or weed control at 280.212 g/ha [14]?
The pest or weed control at 280.212 g/ha was 70%.

And the pest or weed control at 280.212 g/ha [15]?
The pest or weed control at 280.212 g/ha was 15%.

And the pest or weed control at 500 ppm [16]?
The pest or weed control at 500 ppm was 70%.

What about the pest or weed control at 500 ppm [17] of the same compound?
Its pest or weed control at 500 ppm is 90%.

What about the “% NH4-N Remaining After 2 Weeks Incubation” value ([18]; 0.06 ppm) of the same compound?
The value was 4%.

And the “% NH4-N Remaining After 2 Weeks Incubation” value ([18]; 0.125 ppm)?
Its value is 23%.

What about the “% NH4-N Remaining After 2 Weeks Incubation” value ([18]; 0.25 ppm) of the same compound?
The value was 44%.

And the “% NH4-N Remaining After 2 Weeks Incubation” value ([18]; 0.5 ppm)?
The value was 59%.

And the “% NH4-N Remaining After 2 Weeks Incubation” value ([18]; 1 ppm)?
Its value is 67%.

What about the pest or weed control at 280.212 g/ha [19] of the same compound?
The pest or weed control at 280.212 g/ha was 95%.

What about the plant injury at 500 ppm [20] of the same compound?
Its plant injury at 500 ppm is 90%.

What about the plant injury at 500 ppm [21] of the same compound?
The plant injury at 500 ppm was 75%.

And the pest or weed control at 500 ppm [22]?
Its pest or weed control at 500 ppm is 10%.

And the pest or weed control at 280.212 g/ha [23]?
Its pest or weed control at 280.212 g/ha is 100%.

And the plant injury at 280.212 g/ha [24]?
Its plant injury at 280.212 g/ha is 95%.
